What was measured:
[1] = system: healthy dogs; assay: PK/PD studies of diuretic effect (urinary volume) after one-day and fourteen-day oral administration; assay type: in vivo; details: for Urinary volume on day 1 / Urinary volume on day 14: healthy dogs
Method: Two pharmacokinetics studies (PK/PD) in healthy dogs have been performed to investigate and model the pharmacodynamic effects of torasemide, furosemide and placebo after a one-day and fourteen-day oral administration of furosemide at the following doses: 1 and 4 mg/kg/12 hours, and of torasemide at the following doses: 0.2, 0.25, 0.30 and 0.50 mg/kg/day. • 1 and 4 mg/kg furosemide have been administered to five dogs on the basis of repeated oral administration twice daily for 14 days (corresponding to 2 and 8 mg/kg/day). • 0 (placebo), 0.2, 0.25, 0.30 and 0.50 mg/kg torasemide have been administered to five dogs on the basis of repeated oral administration daily for 14 days.

[2] = system: dog model having no clinical signs of heart failure; details: 0.2 mg/kg/day torasemide versus 2 mg/kg/day furosemide, seven days; cited from earlier work
[3] = system: dogs that had become resistant to furosemide; details: torasemide dose ten times lower (1/10) than reference furosemide dose; cited from earlier work
[4] = furosemide 2 mg/kg/day (1 mg/kg/12 hours) oral
[5] = furosemide 8 mg/kg/day (4 mg/kg/12 hours) oral
[6] = torasemide 0.20 mg/kg/day oral once daily
[7] = torasemide 0.25 mg/kg/day oral once daily
[8] = torasemide 0.30 mg/kg/day oral once daily
[9] = torasemide 0.5 mg/kg/day oral once daily

NS(=O)(=O)c1cc(C(=O)O)c(NCc2ccco2)cc1Cl [Furosemide, furosemide]
Urinary volume on day 1 [1, 4]: 374 mL
Urinary volume on day 14 [1, 4]: 532 mL
Urinary volume on day 1 [1, 5]: 620 mL
Urinary volume on day 14 [1, 5]: 1033 mL

Cc1cccc(Nc2ccncc2S(=O)(=O)NC(=O)NC(C)C)c1 [Torasemide, N-[(isopropylamino)carbonyl]-4-[(3-methylphenyl)amino] pyridine-3-sulfonamide]
Diuretic potency compared with furosemide [2]: as potent as furosemide
Duration of diuretic effect compared with furosemide [2]: longer diuretic effect
Urinary volume compared with test control (placebo) ([1]; 0.20 to 0.50 mg/kg/day of torasemide, day 1 and day 14): > 220 mL
Urinary volume on day 1 [1, 6]: 455 mL
Urinary volume on day 14 [1, 6]: 561 mL
Urinary volume on day 1 [1, 7]: 500 mL
Urinary volume on day 14 [1, 7]: 696 mL
Urinary volume on day 1 [1, 8]: 659 mL
Urinary volume on day 14 [1, 8]: 816 mL
Urinary volume on day 1 [1, 9]: 700 mL
Urinary volume on day 14 [1, 9]: 1100 mL
Diuretic potency compared with reference dose of furosemide [3]: as potent in producing a diuretic effect
